According to PubChem BioAssay (NCI):
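Exposure lasted 48 hours, with cells grown in 96-well plates and compounds tested at five concentrations. Abbreviation: GI50, concentration required for 50% inhibition of growth. At the TGI there is no net growth.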

Tests used:
Test in all cases: NCI tumour cell line growth inhibition, 48 h
MCF7 breast = system: MCF7 breast
NCI-H522 lung = system: NCI-H522 lung
UACC-62 melanoma = system: UACC-62 melanoma
T-47D breast = system: T-47D breast
U251 CNS = system: U251 CNS
ACHN renal = system: ACHN renal
SN12C renal = system: SN12C renal
NCI-H460 lung = system: NCI-H460 lung
SK-MEL-28 melanoma = system: SK-MEL-28 melanoma
SF-539 CNS = system: SF-539 CNS
COLO 205 colon = system: COLO 205 colon
BT-549 breast = system: BT-549 breast
SW-620 colon = system: SW-620 colon
HL-60(TB) leukemia = system: HL-60(TB) leukemia
SK-OV-3 ovarian = system: SK-OV-3 ovarian
SK-MEL-2 melanoma = system: SK-MEL-2 melanoma
DU-145 prostate = system: DU-145 prostate
SF-268 CNS = system: SF-268 CNS
HOP-92 NSCLC = system: HOP-92 NSCLC
IGROV1 ovarian = system: IGROV1 ovarian
NCI/ADR-RES ovarian = system: NCI/ADR-RES ovarian
OVCAR-3 ovarian = system: OVCAR-3 ovarian
TK-10 renal = system: TK-10 renal
HCT-15 colon = system: HCT-15 colon
RPMI-8226 leukemia = system: RPMI-8226 leukemia
KM12 colon = system: KM12 colon
EKVX NSCLC = system: EKVX NSCLC
NCI-H226 lung = system: NCI-H226 lung
MOLT-4 leukemia = system: MOLT-4 leukemia
K-562 leukemia = system: K-562 leukemia
M14 melanoma = system: M14 melanoma
PC-3 prostate = system: PC-3 prostate
UO-31 renal = system: UO-31 renal
SNB-75 CNS = system: SNB-75 CNS
A498 renal = system: A498 renal
OVCAR-8 ovarian = system: OVCAR-8 ovarian
LOX IMVI melanoma = system: LOX IMVI melanoma
SNB-19 CNS = system: SNB-19 CNS
RXF 393 renal = system: RXF 393 renal
CCRF-CEM leukemia = system: CCRF-CEM leukemia
OVCAR-5 ovarian = system: OVCAR-5 ovarian
UACC-257 melanoma = system: UACC-257 melanoma
A549 NSCLC = system: A549 NSCLC
MDA-MB-435 = system: MDA-MB-435
HCC-2998 colon = system: HCC-2998 colon
HS 578T breast = system: HS 578T breast
SK-MEL-5 melanoma = system: SK-MEL-5 melanoma
SF-295 CNS = system: SF-295 CNS
HT29 colon = system: HT29 colon
HCT-116 colon = system: HCT-116 colon
MDA-MB-231 breast = system: MDA-MB-231 breast
OVCAR-4 ovarian = system: OVCAR-4 ovarian
SR leukemia = system: SR leukemia
MALME-3M melanoma = system: MALME-3M melanoma
HOP-62 NSCLC = system: HOP-62 NSCLC
786-0 renal = system: 786-0 renal
NCI-H23 lung = system: NCI-H23 lung
CAKI-1 renal = system: CAKI-1 renal

In the case of `COCC1(CO)C(=O)C2CCN1CC2` (stereo not given), the GI50 (MCF7 breast) is reported as 19.1 µM, the TGI (MCF7 breast) is reported as 52.6 µM and the GI50 (NCI-H522 lung) is reported as 4.28 µM. The TGI (NCI-H522 lung) was 11.7 µM, the GI50 (UACC-62 melanoma) was 23 µM and the TGI (UACC-62 melanoma) was over 56.1 µM. The GI50 (T-47D breast) was 9.55 µM, the TGI (T-47D breast) was 34.3 µM and the GI50 (U251 CNS) was over 71 µM. It also gave a TGI (U251 CNS) of over 100 µM, a GI50 (ACHN renal) of 14.5 µM and a TGI (ACHN renal) of 28.7 µM. It also gave a GI50 (SN12C renal) of 16.1 µM, a TGI (SN12C renal) of 31.1 µM and a GI50 (NCI-H460 lung) of over 59 µM. For the same molecule, the TGI (NCI-H460 lung) was over 100 µM, the GI50 (SK-MEL-28 melanoma) was 14.5 µM and the TGI (SK-MEL-28 melanoma) was 28.6 µM. The GI50 (SF-539 CNS) was over 40.7 µM, the TGI (SF-539 CNS) was over 55.7 µM and the GI50 (COLO 205 colon) was 16.8 µM. It also gave a TGI (COLO 205 colon) of 35.8 µM, a GI50 (BT-549 breast) of 15.6 µM and a TGI (BT-549 breast) of 29.5 µM. For the same molecule, the GI50 (SW-620 colon) was 18.1 µM, the TGI (SW-620 colon) was 37.9 µM and the GI50 (HL-60(TB) leukemia) was 18.9 µM. For the same molecule, the TGI (HL-60(TB) leukemia) was 45.2 µM, the GI50 (SK-OV-3 ovarian) was over 51 µM and the TGI (SK-OV-3 ovarian) was over 80.9 µM. The GI50 (SK-MEL-2 melanoma) was 20.6 µM, the TGI (SK-MEL-2 melanoma) was 46.5 µM and the GI50 (DU-145 prostate) was 17.7 µM. For the same molecule, the TGI (DU-145 prostate) was 32.3 µM, the GI50 (SF-268 CNS) was over 90.1 µM and the TGI (SF-268 CNS) was over 100 µM. For the same molecule, the GI50 (HOP-92 NSCLC) was 14.8 µM, the TGI (HOP-92 NSCLC) was 30 µM and the GI50 (IGROV1 ovarian) was 18.4 µM. The TGI (IGROV1 ovarian) was 40.6 µM, the GI50 (NCI/ADR-RES ovarian) was 25.6 µM and the TGI (NCI/ADR-RES ovarian) was over 78.6 µM. It also gave a GI50 (OVCAR-3 ovarian) of 14.2 µM, a TGI (OVCAR-3 ovarian) of 29.4 µM and a GI50 (TK-10 renal) of 16.8 µM. For the same molecule, the TGI (TK-10 renal) was 31.1 µM, the GI50 (HCT-15 colon) was 15.8 µM and the TGI (HCT-15 colon) was 32.7 µM. For the same molecule, the GI50 (RPMI-8226 leukemia) was 23.8 µM, the TGI (RPMI-8226 leukemia) was 64.3 µM and the GI50 (KM12 colon) was over 100 µM. For the same molecule, the TGI (KM12 colon) was over 100 µM, the GI50 (EKVX NSCLC) was 18.1 µM and the TGI (EKVX NSCLC) was 43.4 µM. The GI50 (NCI-H226 lung) was over 47.5 µM, the TGI (NCI-H226 lung) was over 71.9 µM and the GI50 (MOLT-4 leukemia) was 19.4 µM. It also gave a TGI (MOLT-4 leukemia) of 51.4 µM, a GI50 (K-562 leukemia) of 19.9 µM and a TGI (K-562 leukemia) of 58.5 µM. The GI50 (M14 melanoma) was 15.4 µM, the TGI (M14 melanoma) was 31.6 µM and the GI50 (PC-3 prostate) was 36 µM. The TGI (PC-3 prostate) was over 58.4 µM, the GI50 (UO-31 renal) was 15.1 µM and the TGI (UO-31 renal) was 30 µM. The GI50 (SNB-75 CNS) was 21.9 µM, the TGI (SNB-75 CNS) was over 94.2 µM and the GI50 (A498 renal) was 23 µM. It also gave a TGI (A498 renal) of 63.9 µM, a GI50 (OVCAR-8 ovarian) of 34.6 µM and a TGI (OVCAR-8 ovarian) of over 80.3 µM. For the same molecule, the GI50 (LOX IMVI melanoma) was 18.2 µM, the TGI (LOX IMVI melanoma) was 37.2 µM and the GI50 (SNB-19 CNS) was over 69 µM. For the same molecule, the TGI (SNB-19 CNS) was over 100 µM, the GI50 (RXF 393 renal) was 15.7 µM and the TGI (RXF 393 renal) was 30.2 µM. It also gave a GI50 (CCRF-CEM leukemia) of 10.8 µM, a TGI (CCRF-CEM leukemia) of 37.1 µM and a GI50 (OVCAR-5 ovarian) of 26.2 µM. For the same molecule, the TGI (OVCAR-5 ovarian) was over 55.7 µM, the GI50 (UACC-257 melanoma) was 17.7 µM and the TGI (UACC-257 melanoma) was 34 µM. The GI50 (A549 NSCLC) was over 79 µM, the TGI (A549 NSCLC) was over 100 µM and the GI50 (MDA-MB-435) was 17.1 µM. The TGI (MDA-MB-435) was 32.8 µM, the GI50 (HCC-2998 colon) was over 100 µM and the TGI (HCC-2998 colon) was over 100 µM. The GI50 (HS 578T breast) was over 67.5 µM, the TGI (HS 578T breast) was over 100 µM and the GI50 (SK-MEL-5 melanoma) was 43.7 µM. For the same molecule, the TGI (SK-MEL-5 melanoma) was over 77.7 µM, the GI50 (SF-295 CNS) was over 100 µM and the TGI (SF-295 CNS) was over 100 µM. The GI50 (HT29 colon) was 28.1 µM, the TGI (HT29 colon) was over 63.9 µM and the GI50 (HCT-116 colon) was 14.3 µM. For the same molecule, the TGI (HCT-116 colon) was 27.9 µM, the GI50 (MDA-MB-231 breast) was 17.2 µM and the TGI (MDA-MB-231 breast) was 32 µM. It also gave a GI50 (OVCAR-4 ovarian) of 16.9 µM, a TGI (OVCAR-4 ovarian) of 40.4 µM and a GI50 (SR leukemia) of 18.4 µM. It also gave a TGI (SR leukemia) of 58.4 µM, a GI50 (MALME-3M melanoma) of 12.6 µM and a TGI (MALME-3M melanoma) of 28.3 µM. For the same molecule, the GI50 (HOP-62 NSCLC) was over 100 µM, the TGI (HOP-62 NSCLC) was over 100 µM and the GI50 (786-0 renal) was 17.4 µM. The TGI (786-0 renal) was 35.5 µM, the GI50 (NCI-H23 lung) was 19.7 µM and the TGI (NCI-H23 lung) was 46 µM.
Molecule `C=C1C(=O)OC2CC(C)C3(O)CCC(=O)C3(C)CC12` (stereo not given) has a TGI (MCF7 breast) of over 100 µM, a TGI (NCI-H522 lung) of 30.3 µM and a TGI (UACC-62 melanoma) of over 100 µM. For the same molecule, the TGI (T-47D breast) was over 100 µM, the TGI (U251 CNS) was over 100 µM and the TGI (ACHN renal) was 36.2 µM. It also gave a TGI (SN12C renal) of 48.8 µM, a TGI (SK-MEL-28 melanoma) of over 100 µM and a TGI (SF-539 CNS) of 32.7 µM. The TGI (CAKI-1 renal) was 44.4 µM, the TGI (COLO 205 colon) was over 100 µM and the TGI (BT-549 breast) was over 100 µM. The TGI (SW-620 colon) was over 100 µM, the TGI (HL-60(TB) leukemia) was 39.2 µM and the TGI (SK-OV-3 ovarian) was over 100 µM. For the same molecule, the TGI (SK-MEL-2 melanoma) was 71.5 µM, the TGI (DU-145 prostate) was over 100 µM and the TGI (SF-268 CNS) was 64.5 µM. It also gave a TGI (HOP-92 NSCLC) of over 100 µM, a TGI (IGROV1 ovarian) of 82.6 µM and a TGI (NCI/ADR-RES ovarian) of over 100 µM. It also gave a TGI (OVCAR-3 ovarian) of 46.5 µM, a TGI (TK-10 renal) of 99.1 µM and a TGI (HCT-15 colon) of 28.1 µM. For the same molecule, the TGI (RPMI-8226 leukemia) was 43.1 µM, the TGI (KM12 colon) was 42.6 µM and the TGI (EKVX NSCLC) was over 100 µM. For the same molecule, the TGI (NCI-H226 lung) was over 100 µM, the TGI (MOLT-4 leukemia) was 58 µM and the TGI (M14 melanoma) was 55.6 µM. It also gave a TGI (PC-3 prostate) of over 100 µM, a TGI (UO-31 renal) of over 100 µM and a TGI (SNB-75 CNS) of 84.3 µM. It also gave a TGI (A498 renal) of 66.2 µM, a TGI (OVCAR-8 ovarian) of 70.3 µM and a TGI (LOX IMVI melanoma) of over 100 µM. For the same molecule, the TGI (SNB-19 CNS) was 61.4 µM, the TGI (RXF 393 renal) was 79.7 µM and the TGI (CCRF-CEM leukemia) was over 100 µM. It also gave a TGI (OVCAR-5 ovarian) of 74.3 µM, a TGI (UACC-257 melanoma) of over 100 µM and a TGI (A549 NSCLC) of over 100 µM. The TGI (MDA-MB-435) was over 100 µM, the TGI (HCC-2998 colon) was 50 µM and the TGI (HS 578T breast) was 61.4 µM. The TGI (SK-MEL-5 melanoma) was over 100 µM, the TGI (SF-295 CNS) was over 100 µM and the TGI (HT29 colon) was 43.4 µM. For the same molecule, the TGI (HCT-116 colon) was 99.4 µM, the TGI (MDA-MB-231 breast) was over 100 µM and the TGI (OVCAR-4 ovarian) was 40.2 µM. The TGI (SR leukemia) was 57 µM, the TGI (MALME-3M melanoma) was 69.5 µM and the TGI (HOP-62 NSCLC) was over 100 µM. The TGI (786-0 renal) was 59.7 µM and the TGI (NCI-H23 lung) was over 100 µM.
